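Exposure lasted 48 hours, with cells grown in 96-well plates and compounds tested at five concentrations. GI50 = concentration required for 50% inhibition of growth. TGI: total growth inhibition.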
Tests used:
Assay in all cases: DTP human tumour cell line panel, 48 h
SK-MEL-5 melanoma = test system: SK-MEL-5 melanoma
HT29 colon = test system: HT29 colon
SF-539 CNS = test system: SF-539 CNS
OVCAR-3 ovarian = test system: OVCAR-3 ovarian
MDA-MB-231 breast = test system: MDA-MB-231 breast
CCRF-CEM leukemia = test system: CCRF-CEM leukemia
T-47D breast = test system: T-47D breast
SNB-19 CNS = test system: SNB-19 CNS
SF-295 CNS = test system: SF-295 CNS
SW-620 colon = test system: SW-620 colon
PC-3 prostate = test system: PC-3 prostate
K-562 leukemia = test system: K-562 leukemia
UACC-257 melanoma = test system: UACC-257 melanoma
TK-10 renal = test system: TK-10 renal
HOP-62 NSCLC = test system: HOP-62 NSCLC
IGROV1 ovarian = test system: IGROV1 ovarian
SK-OV-3 ovarian = test system: SK-OV-3 ovarian
HCC-2998 colon = test system: HCC-2998 colon
NCI/ADR-RES ovarian = test system: NCI/ADR-RES ovarian
SN12C renal = test system: SN12C renal
M14 melanoma = test system: M14 melanoma
KM12 colon = test system: KM12 colon
MALME-3M melanoma = test system: MALME-3M melanoma
HL-60(TB) leukemia = test system: HL-60(TB) leukemia
NCI-H23 lung = test system: NCI-H23 lung
U251 CNS = test system: U251 CNS
HCT-116 colon = test system: HCT-116 colon
NCI-H226 lung = test system: NCI-H226 lung
A549 NSCLC = test system: A549 NSCLC
UACC-62 melanoma = test system: UACC-62 melanoma
UO-31 renal = test system: UO-31 renal
COLO 205 colon = test system: COLO 205 colon
MDA-MB-435 = test system: MDA-MB-435
DU-145 prostate = test system: DU-145 prostate
SNB-75 CNS = test system: SNB-75 CNS
RXF 393 renal = test system: RXF 393 renal
BT-549 breast = test system: BT-549 breast
CAKI-1 renal = test system: CAKI-1 renal
OVCAR-5 ovarian = test system: OVCAR-5 ovarian
SK-MEL-2 melanoma = test system: SK-MEL-2 melanoma
A498 renal = test system: A498 renal
MCF7 breast = test system: MCF7 breast
LOX IMVI melanoma = test system: LOX IMVI melanoma
SK-MEL-28 melanoma = test system: SK-MEL-28 melanoma
NCI-H460 lung = test system: NCI-H460 lung
RPMI-8226 leukemia = test system: RPMI-8226 leukemia
OVCAR-4 ovarian = test system: OVCAR-4 ovarian
786-0 renal = test system: 786-0 renal
NCI-H522 lung = test system: NCI-H522 lung
ACHN renal = test system: ACHN renal
SF-268 CNS = test system: SF-268 CNS
HCT-15 colon = test system: HCT-15 colon
MOLT-4 leukemia = test system: MOLT-4 leukemia
HS 578T breast = test system: HS 578T breast
OVCAR-8 ovarian = test system: OVCAR-8 ovarian
HOP-92 NSCLC = test system: HOP-92 NSCLC

Work on Cn1c([N+](=O)[O-])cnc1/C=C1\Oc2ccc(Br)cc2C1=O yielded a GI50 (SK-MEL-5 melanoma) of 213 nM, a TGI (SK-MEL-5 melanoma) of 586 nM and a GI50 (HT29 colon) of 231 nM. For the same compound, the TGI (HT29 colon) was 622 nM, the GI50 (SF-539 CNS) was 922 nM and the TGI (SF-539 CNS) was 3280 nM. For the same compound, the GI50 (OVCAR-3 ovarian) was 276 nM, the TGI (OVCAR-3 ovarian) was 690 nM and the GI50 (MDA-MB-231 breast) was 374 nM. For the same compound, the TGI (MDA-MB-231 breast) was 4810 nM, the GI50 (CCRF-CEM leukemia) was 200 nM and the TGI (CCRF-CEM leukemia) was 706 nM. The GI50 (T-47D breast) was 5410 nM, the TGI (T-47D breast) was > 75900 nM and the GI50 (SNB-19 CNS) was 1190 nM. It also gave a TGI (SNB-19 CNS) of 6170 nM, a GI50 (SF-295 CNS) of 1700 nM and a TGI (SF-295 CNS) of 7850 nM. The GI50 (SW-620 colon) was 157 nM, the TGI (SW-620 colon) was 537 nM and the GI50 (PC-3 prostate) was 471 nM. The GI50 (K-562 leukemia) was 400 nM, the TGI (K-562 leukemia) was 3280 nM and the GI50 (UACC-257 melanoma) was 854 nM. The TGI (UACC-257 melanoma) was 4070 nM, the GI50 (TK-10 renal) was 671 nM and the TGI (TK-10 renal) was 2640 nM. The GI50 (HOP-62 NSCLC) was 1140 nM, the TGI (HOP-62 NSCLC) was 3950 nM and the GI50 (IGROV1 ovarian) was 469 nM. It also gave a GI50 (SK-OV-3 ovarian) of 1450 nM, a TGI (SK-OV-3 ovarian) of 6080 nM and a GI50 (HCC-2998 colon) of 995 nM. The TGI (HCC-2998 colon) was 3620 nM, the GI50 (NCI/ADR-RES ovarian) was 609 nM and the TGI (NCI/ADR-RES ovarian) was 74400 nM. The GI50 (SN12C renal) was 421 nM, the TGI (SN12C renal) was 4160 nM and the GI50 (M14 melanoma) was 445 nM. It also gave a TGI (M14 melanoma) of 2100 nM, a GI50 (KM12 colon) of 312 nM and a TGI (KM12 colon) of 957 nM. The GI50 (MALME-3M melanoma) was 683 nM, the TGI (MALME-3M melanoma) was 2210 nM and the GI50 (HL-60(TB) leukemia) was 334 nM. It also gave a TGI (HL-60(TB) leukemia) of 1570 nM, a GI50 (NCI-H23 lung) of 432 nM and a TGI (NCI-H23 lung) of 2350 nM. For the same compound, the GI50 (U251 CNS) was 466 nM, the TGI (U251 CNS) was 2540 nM and the GI50 (HCT-116 colon) was 179 nM. For the same compound, the TGI (HCT-116 colon) was 652 nM, the GI50 (NCI-H226 lung) was 1380 nM and the TGI (NCI-H226 lung) was 4890 nM. The GI50 (A549 NSCLC) was 927 nM, the TGI (A549 NSCLC) was 5200 nM and the GI50 (UACC-62 melanoma) was 993 nM. It also gave a TGI (UACC-62 melanoma) of 2680 nM, a GI50 (UO-31 renal) of 240 nM and a TGI (UO-31 renal) of 765 nM. For the same compound, the GI50 (COLO 205 colon) was 925 nM, the TGI (COLO 205 colon) was 3170 nM and the GI50 (MDA-MB-435) was 253 nM. The TGI (MDA-MB-435) was 731 nM, the GI50 (DU-145 prostate) was 338 nM and the TGI (DU-145 prostate) was 933 nM. For the same compound, the GI50 (SNB-75 CNS) was 1040 nM, the TGI (SNB-75 CNS) was 4450 nM and the GI50 (RXF 393 renal) was 416 nM. For the same compound, the TGI (RXF 393 renal) was 1940 nM, the GI50 (BT-549 breast) was 715 nM and the TGI (BT-549 breast) was 4760 nM. The GI50 (CAKI-1 renal) was 277 nM, the TGI (CAKI-1 renal) was 950 nM and the GI50 (OVCAR-5 ovarian) was 1480 nM. It also gave a TGI (OVCAR-5 ovarian) of 5640 nM, a GI50 (SK-MEL-2 melanoma) of 445 nM and a TGI (SK-MEL-2 melanoma) of 1960 nM. The GI50 (A498 renal) was 1720 nM, the TGI (A498 renal) was 4670 nM and the GI50 (MCF7 breast) was 330 nM. It also gave a TGI (MCF7 breast) of 7970 nM, a GI50 (LOX IMVI melanoma) of 209 nM and a TGI (LOX IMVI melanoma) of 543 nM. It also gave a GI50 (SK-MEL-28 melanoma) of 532 nM, a TGI (SK-MEL-28 melanoma) of 2870 nM and a GI50 (NCI-H460 lung) of 253 nM. It also gave a TGI (NCI-H460 lung) of 654 nM, a GI50 (RPMI-8226 leukemia) of 352 nM and a TGI (RPMI-8226 leukemia) of 2870 nM. For the same compound, the GI50 (OVCAR-4 ovarian) was 1580 nM, the TGI (OVCAR-4 ovarian) was > 20200 nM and the GI50 (786-0 renal) was 557 nM. The TGI (786-0 renal) was 2070 nM, the GI50 (NCI-H522 lung) was 357 nM and the TGI (NCI-H522 lung) was 1040 nM. It also gave a GI50 (ACHN renal) of 212 nM, a TGI (ACHN renal) of 585 nM and a GI50 (SF-268 CNS) of 299 nM. For the same compound, the TGI (SF-268 CNS) was 933 nM, the GI50 (HCT-15 colon) was 193 nM and the TGI (HCT-15 colon) was 657 nM. The GI50 (MOLT-4 leukemia) was 316 nM, the TGI (MOLT-4 leukemia) was 7300 nM and the GI50 (HS 578T breast) was 890 nM. The TGI (HS 578T breast) was > 23400 nM, the GI50 (OVCAR-8 ovarian) was 266 nM and the GI50 (HOP-92 NSCLC) was 369 nM. It also gave a TGI (HOP-92 NSCLC) of 2580 nM.

Source: PubChem BioAssay (NCI)
